Key:
[1] = tested on: HSV-1, HSV-1R, HSV-2 and HSV-2R; experiment: Action on the viral penetration; type: cell-based, herpes simplex virus
Protocol: To determine whether PS3 has an effect on the viral penetration, the procedure was as follows.
Vero cells were seeded at a cell density of 3.5·10^4 cells/well of a microtitre plate in 100 μl of MEM medium containing 8% FCS.
After 24 hours, the confluent cells were brought into contact with 50 μl of a viral suspension for 1 hour at 4° C.
The cell carpet was then incubated with various concentrations of PS3 (0.125-1,250 μg/ml) or reference product, in this case acyclovir ([…]), at 37° C. in order to facilitate penetration of the viruses.
After incubation times of 15, 30 and 60 minutes, the corresponding cells were washed with 100 μl of PBS and then treated for 1 minute with 0.5 mg/ml of proteinase K (Sigma) in solution in PBS in order to remove all the extracellular viruses which had not been adsorbed.
This treatment was stopped by addition of 1 mM of phenylmethylsulphonyl fluoride (Sigma) in solution in PBS containing 3% FCS.
The cells were then washed with 100 μl of PBS per well and cultured again at 37° C. in 200 μl of MEM medium supplemented with 8% FCS.
Controls of the growth of the cells and of the viruses were run simultaneously. After incubation for 48 hours, the effect of PS3 and of acyclovir on the penetration of the virus was measured using the neutral red method.

[2] = tested on: HSV-1, HSV-1R, HSV-2 and HSV-2R; experiment: Virucidal action: viral suspensions treated before infection of vero cells; type: cell-based, herpes simplex virus
Protocol: To determine whether PS3 has a virucidal effect, the procedure was as follows.
Vero cells were seeded at a cell density of 3·10^4 cells/well of a microtitre plate in 100 μl of MEM medium containing 8% FCS for 24 hours before the test.
On the day of the test, 50 μl of each of the viral suspensions identified above were treated with 50 μl of PS3 or reference product (acyclovir) having a given concentration for one hour at 37° C.
An amount of 100 μl of the mixture of this viral suspension, to which PS3 or the reference product had been added, was introduced into each well of the microtitre plate. The plate was kept at 4° C. for one hour.
It is to be noted that controls of the growth of the cells and of the viruses were run simultaneously.
The plates containing the infected cells were then placed in an oven at 37° C. for 48 or 72 hours.
The virucidal effect of PS3 was evaluated by measurement of the EC50 values determined in accordance with the method described in Example 3.

[3] = tested on: acyclovir-resistant strain HSV-1R; experiment: Anti-herpes activity, viability of infected vero cells (neutral red); type: cell-based, herpes simplex virus 1; details: for Anti-herpes activity (conclusion in words) / EC50: HSV-1R; for Anti-herpes activity (conclusion in words): 48 and 72 hours; for EC50: MOI 0.01 ID50/cell
Protocol: (§1) This method is based on the principle that living cells absorb neutral red, which is a vital stain. The optical density of the medium was measured at the maximum absorption wavelength of neutral red, that is to say 540 nm, using a spectrophotometer (SpectraCount™, microplate photometer, Packard). The optical density at 540 nm is proportional to the number of living cells in an infected culture (McLaren et al., Antiviral Research, 1983; 3: 223-234 and Langlois et al., Standardization, 1986, 14: 201-211).
(§2) The effective concentration (EC 50%), that is to say the concentration of the sulphated polysaccharide which enables infection of 50% of the cells of a culture to be inhibited, was measured for each viral strain.
(§3) The determination of the EC50 was carried out in 96-well microtitre plates in accordance with the following protocol. Vero cells are seeded at a cell density of 3.5·10^4 cells/well in 100 μl of MEM medium containing 8% FCS. For each viral suspension defined by its MOI: • the negative control column was filled with 100 μl of MEM medium with 8% FCS, • the virus control column was filled with 50 μl of viral suspension having the required MOI and with 50 μl of MEM medium with 8% FCS, • the PS3 control column was filled with 50 μl of PS3 having the desired concentration range or with 50 μl of acyclovir (Zovirax 0.05-5 μg/ml • finally, all the other columns were filled successively with 50 μl of PS3 having the required concentration range or with 50 μl of acyclovir (Zovirax 0.05-5 μg/ml) and with 50 μl of the viral suspension having the desired MOI.
(§4) The EC50 corresponding to the concentration which enables the cytopathic effect of the virus to be reduced by 50% was calculated in accordance with the following formula: […]
(§5) The anti-herpes activity of PS3 was evaluated and compared on each viral suspension of HSV-1, HSV-1R, HSV-2 and HSV-2R defined by an MOI of 0.01 ID50/cell for a cell concentration of 350,000 cells/ml, after incubation times of 48 and 72 hours.
(§6) This series of experiments was carried out applying the protocol enabling the EC50 to be determined, as described in Example 3.
(§7) The therapeutic indices (TI) of PS3, as well as three other reference products, that is to say acyclovir, dextran sulphate and phycarine, were determined in parallel for each viral strain.
(§8) The therapeutic index (TI) represents the ratio between the maximum non-toxic dose (or a dose inducing a quantified toxicity) and the dose inducing a favourable pharmacological effect.

HSV-1 = experiment: as above; type: cell-based, herpes simplex virus 1; details: for EC50: MOI 0.01 ID50/cell
Protocol: as §1, §2, §3, §4, §5, §6, §7, §8

[4] = tested on: HSV-1, HSV-1R, HSV-2 and HSV-2R; experiment: Action as a function of the moment of use (time of addition); type: cell-based, herpes simplex virus; details: for Inhibitory effect as a function of the moment of use: viral strains HSV-1R and HSV-2R, PS3 even when used 3 hours after infection, 72 hours
Protocol: To determine at what moment it is appropriate to use PS3, the procedure was as follows.
Vero cells were seeded at a cell density of 3.5·10^4 cells/well of a 96-well microtitre plate in 100 μl of MEM medium containing 8% FCS and they were then infected by being brought into contact with the various viral strains identified above for 1 hour at 4° C.
The infected cells were then washed with a saline buffer in order to remove the viral particles which had not be adsorbed.
The infected cells were then treated with PS3 or with the comparison product: • either at the moment of infection, • or 1, 2, 3 and 5 hours after infection.
In each case the microtitre plates were kept at 37° C. for 72 hours. The inhibitory effect of PS3 or of the comparison product, in this case acyclovir, was then determined for each viral strain.

[5] = non-resistant strains HSV-1 and HSV-2
[6] = strains HSV-1, HSV-2, HSV-1R, HSV-2R

| Compound | Effect on penetration [1, 5] | Virucidal effect [2, 5] | Anti-herpes activity (conclusion in words) [3] | Therapeutic index HSV-1R ([3]; incubation time 48 hours) | Therapeutic index HSV-1R ([3]; incubation time 72 hours) | Therapeutic index HSV-1 (HSV-1; incubation time 48 hours) | Therapeutic index HSV-1 (HSV-1; incubation time 72 hours) | Effect in relation to the moment of addition [4, 5] | Inhibitory effect as a function of the moment of use [4] | Effect on penetration [1, 6] | Virucidal effect ([2]; strains HSV-1, HSV-2, HSV-1R, HSV-2R, viral suspension treated one hour at 37° C.) | EC50 ([3]; after 48 hours of treatment) | EC50 ([3]; after 72 hours of treatment) | EC50 (HSV-1; HSV-1, after 48 hours of treatment) | EC50 (HSV-1; HSV-1, after 72 hours of treatment) | Effect in relation to the moment of addition [4, 6] |
| --- | --- | --- | --- | --- | --- | --- | --- | --- | --- | --- | --- | --- | --- | --- | --- | --- |
| Nc1nc2c(ncn2COCCO)c(=O)[nH]1 [Acyclovir, acyclovir, reference compound] | no | no | not effective | 0 | 0 | >4,902 | >1,492 | effective up | no effect | – | – | – | – | – | – | – |
| sulphated laminarin [PS3] | – | – | more effective than acyclovir | >1,157 | >530 | >1,761 | >651 | – | particularly effective | no antiviral activity on penetration and no | no virucidal effect and no | less than 2 μg/ml | less than 5 μg/ml | less than 2 μg/ml | less than 5 μg/ml | not very effective |
